Assay results as given in US20160273042A1, “GENETIC MARKERS OF ANTIPSYCHOTIC RESPONSE” (SUREGENE, LLC, priority 2013, published 2016).
Where “and” joins values, the source holds several entries; their conditions need not be identical. Equal values may be shown once. Entries after “also recorded” stand apart in the source; their conditions may differ.

Key:
[1] = system: patients of the CATIE study (schizophrenia); assay: CATIE trial: change in PANSS score (delta PANSS, LOCF) for subjects stratified by GARP genetic signature status; type: in vivo, human; details: for Delta PANSS, Mean, GARP-1 negative: GARP-1 negative subjects; for Delta PANSS, Mean, GARP-1 negative / Delta PANSS, Mean, GARP-1 positive / Delta PANSS, Mean, GARP-2 negative / Delta PANSS, Mean, GARP-3 negative / Delta PANSS, Mean, GARP-3 positive / Delta PANSS, Mean, GARP-4 negative / Delta PANSS, Mean, GARP-4 positive / Delta PANSS, Mean, GARP-2 positive: LOCF, CATIE Phases 1-2; for Delta PANSS, Mean, GARP-1 positive / response in GARP-1 positive subjects, in words: GARP-1 positive subjects; for Delta PANSS, Mean, GARP-2 negative: GARP-2 negative subjects; for Delta PANSS, Mean, GARP-3 negative: GARP-3 negative subjects; for Delta PANSS, Mean, GARP-3 positive / response in GARP-3 positive subjects, in words: GARP-3 positive subjects; for Delta PANSS, Mean, GARP-4 negative: GARP-4 negative subjects; for Delta PANSS, Mean, GARP-4 positive: GARP-4 positive subjects; for Relative efficacy (positive), GARP-1: GARP-1 positive versus negative subjects; for Relative efficacy (positive), GARP-1 / Relative efficacy (positive), GARP-2 / Relative efficacy (positive), GARP-3 / Relative efficacy (positive), GARP-4: t-test; for Relative efficacy (positive), GARP-2: GARP-2 positive versus negative subjects; for Relative efficacy (positive), GARP-3: GARP-3 positive versus negative subjects; for Relative efficacy (positive), GARP-4: GARP-4 positive versus negative subjects; for response in GARP-1 positive subjects, in words: compared with GARP-1 negative subjects or with other drugs; for response in GARP-2 positive subjects, in words: compared with GARP-2 negative subjects or with other drugs; for response in GARP-2 positive subjects, in words / Delta PANSS, Mean, GARP-2 positive: GARP-2 positive subjects; for response in GARP-3 positive subjects, in words: compared with GARP-3 negative subjects or with other drugs
Description: The CATIE study, a large federally funded clinical trial designed to assess the efficacy of antipsychotics in a real world setting, is a valuable resource for determining the role of genes in baseline psychopathology and drug response (Lieberman et al., 2005; Stroup et al., 2003). […] Additionally, whole genome SNP genotyping was performed for roughly half of the trial participants (Sullivan et al., 2008).
Genotype and phenotype data for the CATIE trial were recently made available to qualified researchers through the NIMH Center for Collaborative Genetic Studies on Mental Disorders. The sample consisted of a total of 738 patients. Further details on the patient population are described in the study by Sullivan and coworkers (Sullivan et al., 2008). The CATIE SNP genotype data evaluated included a total of 492,900 SNPs located throughout the genome.
The design of the CATIE study has been described in detail by others (Lieberman et al., 2005; Stroup et al., 2003). […] Subjects that failed Phase 1 treatment with the typical antipsychotic perphenazine were treated differently than those subjects that failed phase I treatment with an atypical antipsychotic. Instead of entering into Phase II of the trial, subjects who switched from perphenazine entered Phase IB. […] Subjects who failed Phase IB then entered Phase II.
A total of 738 subjects consented to provide DNA for genetic study. […] Only retrospective genetic analyses, judged to be exempt from human studies requirements by an IRB, were conducted in the current study. For the genetic analyses presented herein, the inventors combined and evaluated drug response data for Phase IA, Phase IB, and Phase II of the CATIE study. All tested patients were studied using well established clinical endpoints comparing baseline, intermediate, and last observation carried forward (LOCF) for the PANSS scores using CATIE data. LOCF analysis is a commonly used clinical endpoint for clinical trials for neuropsychiatric drugs, with particular changes in PANSS scores being used to indicate clinically significant response (Leucht et al., 2009).
Using the clinical data from the CATIE trial, the inventors derived several different metrics used for quantifying response in clinical trials of antipsychotic medications. The most commonly used psychometric instrument is the Positive and Negative Syndrome Scale (PANSS), a 30-item semi-quantitative instrument scored by clinical professionals (Kay et al., 1987). The greater the decrease in PANSS score, the better the clinical response. The most direct measure of clinical response is absolute change in PANSS score (delta PANSS). In addition to absolute change, the improvement is often reported as a percentage change from baseline PANSS score.
As mentioned previously, the mean change in PANSS at LOCF provides an important measure of efficacy in patients undergoing antipsychotic treatments. Indeed, many pivotal trials in the psychosis field used absolute and/or percentage change in PANSS Score as the primary endpoint (Leucht et al., 2009). […] Therefore, the inventors determined the impact of segmentation by GARP genetic signature status on the quantitative measure of clinical improvement—delta PANSS (for LOCF).
Each table lists the six drugs used during the first two phases of the CATIE trial.

[2] = hierarchy high / medium / low risk; cited from earlier work
[3] = system: psychotic symptoms (PANSS); details: difference in mean response drug minus placebo arm, divided by standard deviation; negative = greater reduction in PANSS; cited from earlier work
[4] = system: psychotic symptoms (PANSS); details: versus first generation antipsychotics; cited from earlier work

Structure (SMILES) | Delta PANSS, Mean, GARP-1 negative [1] | Delta PANSS, Mean, GARP-1 positive [1] | Delta PANSS, Mean, GARP-2 negative [1] | Delta PANSS, Mean, GARP-3 negative [1] | Delta PANSS, Mean, GARP-3 positive [1] | Delta PANSS, Mean, GARP-4 negative [1] | Delta PANSS, Mean, GARP-4 positive [1] | worse response of GARP-2 positive than GARP-2 negative patients ([1]; difference in delta PANSS, GARP-2 positive vs negative) [points] | Relative efficacy (positive), GARP-1 [1] | Relative efficacy (positive), GARP-2 [1] | Relative efficacy (positive), GARP-3 [1] | Relative efficacy (positive), GARP-4 [1] | risk for weight gain, classification [2] | response in GARP-1 positive subjects, in words [1] | response in GARP-2 positive subjects, in words [1] | Delta PANSS, Mean, GARP-2 positive [1] | response in GARP-3 positive subjects, in words [1] | Effect Size vs. Placebo [3] | Effect Size vs. FGA [4] | response in GARP-1 positive subjects, in words ([1]; listed as ziprasidone)
CN1CCN(C2=Nc3cc(Cl)ccc3Nc3ccccc32)CC1 [Clozapine, clozapine] | −15.32 | −14.0 | −24.33 | −13.6 | −31 | −13.4 | −26.3 | ~20 | – | – | – | – | – | – | – | – | – | – | – | –
Cc1cc2c(s1)Nc1ccccc1N=C2N1CCN(C)CC1 [Olanzapine, olanzapine] | −7.48 | – | −10.73 | −9.5 | −6.3 | −9.0 | −9.3 | – | Enhanced | Neutral | Neutral | Neutral | high risk | – | – | – | – | – | – | –
OCCN1CCN(CCCN2c3ccccc3Sc3ccc(Cl)cc32)CC1 [Perphenazine, perphenazine] | −6.40 | 2.84 and 2.8 | 0.52 | −5.5 | 0.7 | −4.7 | −3.0 | – | Decreased | Enhanced | Neutral | Neutral | – | decreased response; also recorded: Neither quetiapine nor perphenazine demonstrated efficacy | enhanced response; also recorded: responded better; also recorded: superior efficacy | – | – | – | – | –
OCCOCCN1CCN(C2=Nc3ccccc3Sc3ccccc32)CC1 [Quetiapine, quetiapine] | −0.53 | – | −2.86 | −0.1 | −4.3 | −0.7 | −1.6 | – | Neutral | Decreased | Neutral | Neutral | medium risk | Neither quetiapine nor perphenazine demonstrated efficacy | decreased response; also recorded: responded worse; also recorded: lack of efficacy | 1.51 and 1.5 | enhanced response; also recorded: responded significantly better | −0.42 | 0.01 | –
Cc1nc2n(c(=O)c1CCN1CCC(c3noc4cc(F)ccc34)CC1)CCCC2 [Risperidone, risperidone] | −4.55 | – | −4.65 | −6.9 | 2.1 | −5.4 | −6.7 | – | Enhanced | Neutral | Decreased | Neutral | medium risk | enhanced response; also recorded: significant efficacy | superior efficacy | – | decreased response; also recorded: responded poorly | −0.59 | −0.25 | –
O=C1Cc2cc(CCN3CCN(c4nsc5ccccc45)CC3)c(Cl)cc2N1 [Ziprasidone, ziprasidone] | −2.94 | 12.72 and 12.7 | 3.51 | −0.1 | −4.5 | 0.4 | −4.3 | – | Decreased | Enhanced | Neutral | Neutral | low risk | worsening of symptoms | enhanced response | −2.8 | – | −0.48 | −0.04 | decreased response; also recorded: responded particularly poorly; also recorded: NON-response
O=C1CCc2ccc(OCCCCN3CCN(c4cccc(Cl)c4Cl)CC3)cc2N1 [aripiprazole] | – | – | – | – | – | – | – | – | – | – | – | – | low risk | NON-response | – | – | – | – | – | –
